Test [1] deals with MOLM-14 cells. The test is described as follows: Inhibitory concentrations (IC50, IC12.5) of kinase inhibitor panel for MOLM-14 cells. Format: cell-based, human. The conditions noted are these: concentration used for 48 h treatment.
Test [2] concerns pSTAT5. The test can be described thus: SC-QDP pSTAT5 in single CD34+ cells from CML patients. Type of test: cell-based, human. Conditions: five CML patients, dasatinib 100 nM, 4 h. The protocol:
(§1) Cell culture and kinase inhibitor treatment. Primary mononuclear cells (MNCs) were isolated from peripheral blood or bone marrow of newly diagnosed, untreated patients with chronic phase CML. MNCs were isolated by centrifugation through a Ficoll gradient, and red blood cells were lysed with 1×ACK (0.15 M NH4Cl, 10 mM KHCO3, 0.1 mM EDTA). MNCs were grown in serum-free media consisting of IMDM supplemented with 20% BIT (Stem Cell Technologies), 40 μg/ml low-density lipoprotein (Sigma-Aldrich), 10^-6 M β-mercaptoethanol, and the following cytokines: 100 ng/ml SCF (Stem Cell Technologies), 100 ng/ml G-CSF, 20 ng/ml FLT3 ligand, 20 ng/ml IL-3, and 20 ng/ml IL-6 (Sigma-Aldrich). MNCs were grown at a density of 5×10^5 cells/ml at 37° C., 5% CO2, overnight in a humidified incubator before drug treatment. […]
(§2) SC-QDP image acquisition. Cells were imaged with an inverted fluorescent microscope (Zeiss AxioObserver) equipped with high magnification objectives, QD filter sets (Semrock), and a Luca-R camera (Andor) suitable for detecting discrete QD fluorescence. […]
(§3) SC-QDP discrete QD counts in single cells. Levels of phosphoprotein activity were quantified in single cells using automated software imaging algorithms. […]

The test system of test [3] is pCRKL. The test is described as follows: QD total (diffuse) fluorescence quantification of pCRKL in K562 cells. Type of test: cell-based, human. The conditions noted are these: dasatinib-treated, untreated 1.1. As for the experimental part: as §1, §2
Measurements of single-cell total fluorescence of QD and Alexa dyes were obtained for each cell by summing pixel values from all slices in a single z-stack corresponding to each cell and subtracting the global background value for each field of view from the image. […]

The test system of test [4] is pCRKL. The test can be described thus: SC-QDP pCRKL in single CD34+ cells from CML patients. Type of test: cell-based, human. Conditions: dasatinib 100 nM, 4 h. As for the experimental part:
(§4) Cell culture and kinase inhibitor treatment. Primary mononuclear cells (MNCs) were isolated from peripheral blood or bone marrow of newly diagnosed, untreated patients with chronic phase CML. MNCs were isolated by centrifugation through a Ficoll gradient, and red blood cells were lysed with 1×ACK (0.15 M NH4Cl, 10 mM KHCO3, 0.1 mM EDTA). MNCs were grown in serum-free media consisting of IMDM supplemented with 20% BIT (Stem Cell Technologies), 40 μg/ml low-density lipoprotein (Sigma-Aldrich), 10^-6 M β-mercaptoethanol, and the following cytokines: 100 ng/ml SCF (Stem Cell Technologies), 100 ng/ml G-CSF, 20 ng/ml FLT3 ligand, 20 ng/ml IL-3, and 20 ng/ml IL-6 (Sigma-Aldrich). MNCs were grown at a density of 5×10^5 cells/ml at 37° C., 5% CO2, overnight in a humidified incubator before drug treatment. The CML (K562) and AML (MOLM-14) cell lines were grown in suspension culture, in RPMI with 10% fetal bovine serum (Invitrogen), 1% L-glutamine (100 mM), and 1% penicillin/streptomycin (100 μg/ml), in a humidified incubator at 37° C., 5% CO2.
K562 cells and MNCs were treated for 4 h with dasatinib, at a concentration of 100 nM unless otherwise specified. […].
(§5) SC-QDP phosphoprotein labeling. Cells were fixed, permeabilized and dispersed onto cover glass chambers (Lab-Tek; Nunc), or custom-made, multi-well cover glass chambers for high throughput assays. The cells in each well were blocked and treated with primary anti-phosphoprotein antibodies (pCRKL, pSTAT5, pSTAT3, pERK1/2, pAKT473; Cell Signaling Technology). The anti-CD34 antibody (Dako, USA) was used for selection of CD34+ primitive cells. […]
as §2, §3

The test system of test [5] is pCRKL. The test is described as follows: SC-QDP discrete QD counting of pCRKL in K562 cells. Format: cell-based, human. Conditions: pCRKL level divided by isotype control, untreated 11.4. The protocol: as §1, §2, §3
The test system of test [6] is pAKT. The conditions noted are these: MOLM-14 cells, 48 h. The protocol: as §4
(§6) K562 cells and MNCs were treated for 4 h with dasatinib, at a concentration of 100 nM unless otherwise specified.
(§7) SC-QDP phosphoprotein labeling. Cells were fixed, permeabilized and dispersed onto cover glass chambers (Lab-Tek; Nunc), or custom-made, multi-well cover glass chambers for high throughput assays. The cells in each well were blocked and treated with primary anti-phosphoprotein antibodies (pCRKL, pSTAT5, pSTAT3, pERK1/2, pAKT473; Cell Signaling Technology). The anti-CD34 antibody (Dako, USA) was used for selection of CD34+ primitive cells. […] After cells were incubated with secondary antibodies, they were washed in buffer solution and imaged.
(§8) SC-QDP image acquisition. Cells were imaged with an inverted fluorescent microscope (Zeiss AxioObserver) equipped with high magnification objectives, QD filter sets (Semrock), and a Luca-R camera (Andor) suitable for detecting discrete QD fluorescence. Data acquisition consisted of acquiring multiple fields of view randomly for each well of the multi-well chamber. The microscope was controlled by Micromanager (www.micro-manager.org/). […] Image acquisition was performed manually or by automated high-throughput scanning. For automated high-throughput scanning, a custom-written Java plugin for Micromanager was used that allows scanning of user-selected wells as well as random or user-selected areas within each well for DIC, and appropriate multiple quantum dot (QD) channels. The Java plugin also corrected slide tilt by determining the slide focal plane. Image focus at each well was verified and corrected manually if needed.
(§9) SC-QDP discrete QD counts in single cells. Levels of phosphoprotein activity were quantified in single cells using automated software imaging algorithms. Cell segmentation was first done manually and then was optimized for speed using an automated procedure. Automated cell segmentation comprised detecting the nucleus and plasma membrane using a threshold-based intensity algorithm and a membrane expansion cell segmentation algorithm (www.cellprofiler.org) of each cell. Discrete QD fluorescence was detected, localized and tabulated on a per cell basis using automated algorithms written in MATLAB (Matlab). Briefly, detection of discrete QD probes was accomplished in single-cell z-stacks by applying a spatial bandpass filter, detecting localized maxima, and calculating the position of each QD for each z-slice. […] The output of these automated algorithms comprised total counts of detected and localized discrete QD fluorescent puncta in each single cell z-stack.

Test [7] relates to pERK. Conditions: MOLM-14 cells, 48 h. The protocol: as §4, §6, §7, §8, §9
The subject of test [8] is pCRKL, pSTAT5, and pSTAT3. The test is described as follows: SC-QDP baseline phosphoheterogeneity of K562 cells after cell cycle synchronization. Type of test: cell-based, human. Conditions: lovastatin-induced cell cycle synchronization, data not shown.
Excerpt: as §5, §2
SC-QDP discrete QD counts in single cells. Levels of phosphoprotein activity were quantified in single cells using automated software imaging algorithms. […] Discrete QD fluorescence was detected, localized and tabulated on a per cell basis using automated algorithms written in MATLAB (Matlab). […] The output of these automated algorithms comprised total counts of detected and localized discrete QD fluorescent puncta in each single cell z-stack. […] The QDs were identified as discrete, non-aggregated units comprised of single or a few QDs, as confirmed by intensity profile measurements of QD fluorescence. […]

“Also recorded” adds a separate entry of the source. Where two headings read alike, the source gives them in different places.

In turn, `CNC(=O)c1ccccc1Sc1ccc2c(/C=C/c3ccccn3)n[nH]c2c1` [axitinib] showed an IC12.5 in test [1] of 0.025 µM.
In test [1] (Homo sapiens), `C[C@@H](Oc1cc(-c2cnn(C3CCNCC3)c2)cnc1N)c1c(Cl)ccc(F)c1Cl` [crizotinib] came in with an IC12.5 of 0.45 µM and an IC50 of 1800 nM.
With `Cc1nc(Nc2ncc(C(=O)Nc3c(C)cccc3Cl)s2)cc(N2CCN(CCO)CC2)n1` [dasatinib], in test [1] (Homo sapiens), the IC50 is 400 nM. This molecule also registered an IC12.5 in test [1] of 0.1 µM. Further, the “resistant CD34+ cell population (pSTAT5 greater than mean pSTAT5 of untreated CD34+ cells)” value in test [2] was 17-37%. Further, in test [3], the “pCRKL S/N ratio by QD total fluorescence” value came to 1.7. The “pCRKL inhibition (shift in peak of PDE curve)” value in test [4] (CD34+ cells of five CML patients) is around 1.8 fold. Also, the “frequency of dasatinib-resistant CD34+ cells, alternative threshold (pCRKL greater than mean untreated − 0.5σ untreated)” value in test [4] (five CML patients) is recorded as 8.5-53.9%. Moreover, in test [4] (five CML patients, of total dasatinib-treated cell population), the “frequency of dasatinib-resistant CD34+ cells (pCRKL equal to or greater than mean of untreated CD34+ cells)” value was 5.4-9.9%. Also, the “pCRKL activity S/N ratio by QD counting” value in test [5] (dasatinib 10 nM) is listed as 4.7; in test [5] (dasatinib 100 nM), 2.3.
`C#Cc1cccc(Nc2ncnc3cc(OCCOC)c(OCCOC)cc23)c1` [erlotinib] gave an IC12.5 in test [1] (Homo sapiens) of 1.75 µM. The molecule also had an IC50 in test [1] (Homo sapiens) of 7000 nM. The “overall shift of pAKT PDE curve” value in test [6] was “left-shift”. The pAKT phosphoresponse result is “phosphoinhibition; also recorded: inhibition of pAKT” in test [6] (at IC12.5) and “phosphoactivation; also recorded: pAKT activation” in test [6] (at IC50). Moreover, the “overall shift of pERK PDE curve” value in test [7] is reported as “left-shift”. Besides, in test [7] (IC50 concentration (FIG. 5C legend)), the “percentage of resistant cells (pERK equal to or greater than mean pERK of untreated cells)” value is listed as 36%. In addition, the figures for the pERK phosphoresponse entry in test [7] (at IC12.5) and in test [7] (at IC50) were “phosphoinhibition” and “phosphoactivation”, respectively.
The molecule `COc1cc2ncnc(Nc3ccc(F)c(Cl)c3)c2cc1OCCCN1CCOCC1` [gefitinib] had an IC12.5 in test [1] (Homo sapiens) of 2.25 µM.
Take `C=CC(=O)N1CCC[C@@H](n2nc(-c3ccc(Oc4ccccc4)cc3)c3c(N)ncnc32)C1` [ibrutinib]: in test [1] (Homo sapiens), the IC12.5 is 0.4 µM and the IC50 came to 1600 nM.
In turn, `Cc1ccc(NC(=O)c2ccc(CN3CCN(C)CC3)cc2)cc1Nc1nccc(-c2cccnc2)n1` [imatinib] registered an IC12.5 in test [1] (Homo sapiens) of 2.5 µM.
Take `CS(=O)(=O)CCNCc1ccc(-c2ccc3ncnc(Nc4ccc(OCc5cccc(F)c5)c(Cl)c4)c3c2)o1` [lapatinib]: in test [1] (Homo sapiens), the IC12.5 was 2.25 µM and the IC50 was 9000 nM.
Turning to `CC[C@H](C)C(=O)O[C@H]1C[C@@H](C)C=C2C=C[C@H](C)[C@H](CC[C@@H]3C[C@@H](O)CC(=O)O3)[C@H]21` [lovastatin], in test [8], the baseline phosphoheterogeneity result was “reduced this heterogeneity”.
In test [1] (Homo sapiens), `Cc1cn(-c2cc(NC(=O)c3ccc(C)c(Nc4nccc(-c5cccnc5)n4)c3)cc(C(F)(F)F)c2)cn1` [nilotinib] had an IC12.5 of 2.25 µM and a 50% inhibitory concentration (IC50) of 9000 nM.
For `Cc1ccc(Nc2nccc(N(C)c3ccc4c(C)n(C)nc4c3)n2)cc1S(N)(=O)=O` [pazopanib], in that order: 0.5 µM and 2000 nM.
`Cc1ccc(C(=O)Nc2ccc(CN3CCN(C)CC3)c(C(F)(F)F)c2)cc1C#Cc1cnc2cccnn12` [ponatinib] registered an IC50 in test [1] (Homo sapiens) of 4 nM. In test [1], this molecule had an IC12.5 of 0.001 µM.
On to `CO[C@H]1C[C@@H]2CC[C@@H](C)[C@@](O)(O2)C(=O)C(=O)N2CCCC[C@H]2C(=O)O[C@H]([C@H](C)C[C@@H]2CC[C@@H](O)[C@H](OC)C2)CC(=O)[C@H](C)/C=C(\C)[C@@H](O)[C@@H](OC)C(=O)[C@H](C)C[C@H](C)/C=C/C=C/C=C/1C` [rapamycin], for which half-maximal inhibition in test [1] (Homo sapiens) (IC50) required 20 nM. In test [1], the IC12.5 turned out to be 0.005 µM.
In test [1] (Homo sapiens), `N#CC[C@H](C1CCCC1)n1cc(-c2ncnc3[nH]ccc23)cn1` [ruxolitinib] showed an IC12.5 of 2.5 µM and a half-maximal inhibitory concentration (IC50) of 10000 nM.
Molecule `CNC(=O)c1cc(Oc2ccc(NC(=O)Nc3ccc(Cl)c(C(F)(F)F)c3)cc2)ccn1` [sorafenib] had an IC50 in test [1] (Homo sapiens) of 8 nM. In addition, in test [1], the IC12.5 stood at 0.002 µM.
`CCN(CC)CCNC(=O)c1c(C)[nH]c(/C=C2\C(=O)Nc3ccc(F)cc32)c1C` [sunitinib] came in with an IC50 in test [1] (Homo sapiens) of 12 nM. In test [1], this molecule had an IC12.5 of 0.003 µM.
For the molecule `COc1cc2c(Nc3ccc(Br)cc3F)ncnc2cc1OCC1CCN(C)CC1` [vandetanib], in test [1] (Homo sapiens), the IC12.5 is 0.9 µM and the IC50 came to 3600 nM.
